Measured values published in patent US20240383955A1, “MODIFIED ANTIMICROBIAL PEPTIDES” (priority 2021, published 2024).
In brackets after ≈: the same amount, converted by molar mass. Like-named read-outs stand apart in the source and are kept apart here. Bridge positions count the residues as written; N and C are the ends. Square brackets hold non-standard residues; d marks the D form. Peptide text beside a SMILES is read from it. Dab = NCC[C@H](N)C(=O)O

Experiments:
[1] = test system: F. graminearum
[2] = test system: B. cinerea, F. graminearum, F. oxysporum and P. capsici; format: cell-based; details: in vitro, low cationic conditions
[3] = test system: Fusarium (F. oxysporum); experiment: MIC by CLSI M27/M38 methodology; format: cell-based; details: Table 8
Description: (§1) Testing for antifungal activity used half-strength potato dextrose broth for peptides and RPMI for comparator antifungals fluconazole and voriconazole. CLSI M27 and M38 methodologies used for to measure MICs. Minimal Inhibitory Concentration (MIC) is the concentration of the compound, protein, or peptide at which there is no significant growth of the microorganism relative to the growth of the microorganism in growth medium lacking the compound, protein, or peptide.
(§2) […] The concentration range for peptides in potato dextrose broth was 0.06-2 mcg/ml, the concentration range for fluconazole was 0.125-64 mcg/ml, and the concentration range for voriconazole was 0.03-16 mcg/ml. MICs were determined at 24-72 hours.

[4] = test system: Aspergillus fumigatus; experiment: MIC by CLSI M27/M38 methodology; format: cell-based; details: Table 8
Description: as §1, §2

[5] = test system: Candida albicans; experiment: MIC by CLSI M27/M38 methodology; format: cell-based; details: Table 8
Description: as §1, §2

[6] = test system: Fusarium (F. solani); experiment: MIC by CLSI M27/M38 methodology; format: cell-based; details: Fusarium isolate F4 (F. solani); Table 8
Description: as §1, §2

[7] = test system: Candida auris; experiment: MIC by CLSI M27/M38 methodology; format: cell-based; details: Table 8
Description: as §1, §2

[8] = test system: C. parapsilosis; experiment: MIC by CLSI M27/M38 methodology; format: cell-based, Candida parapsilosis; details: C. parapsilosis isolate ATCC 22019; Table 8
Description: as §1, §2

[9] = test system: Coccidioides sp.; format: cell-based; details: Table 8
[10] = test system: B. cinerea; experiment: In vitro antifungal activity (MIC) in SFM culture media, with or without added salts; details: SFM + 2 mM CaCl2; Table 10
[11] = test system: Botrytis cinerea; details: Table 18
[12] = test system: B. cinerea; experiment: Semi-in planta drop inoculation assay on detached leaves of N. benthamiana, gray mold symptoms; format: in vivo, B. cinerea on N. benthamiana; details: 48 h; for effectiveness in reducing gray mold disease symptoms: peptide tested at 1.5 μM, 3 μM and 6 μM
[13] = Fusarium isolate F1 (F. oxysporum)
[14] = Fusarium isolate F2 (F. oxysporum)
[15] = Aspergillus fumigatus isolate AF293
[16] = Aspergillus fumigatus isolate DI15-106
[17] = Aspergillus fumigatus isolate DI15-116
[18] = Candida albicans isolate ATCC 90028
[19] = Candida albicans isolate SC5314
[20] = Coccidioides sp. isolate Cocci1
[21] = Coccidioides sp. isolate Cocci2
[22] = Coccidioides sp. isolate DI17-143

C[C@@H](O)[C@H](NC(=O)[C@H](CS)NC(=O)[C@H](Cc1ccccc1)NC(=O)[C@H](CS)NC(=O)[C@H](CCCNC(=N)N)NC(=O)[C@H](CCCNC(=N)N)NC(=O)[C@H](CCCNC(=N)N)NC(=O)[C@H](Cc1ccccc1)NC(=O)CNC(=O)[C@H](CCCNC(=N)N)NC(=O)[C@H](CS)NC(=O)[C@H](CCCNC(=N)N)NC(=O)CN)C(=O)N[C@H](C(=O)N[C@@H](Cc1c[nH]cn1)C(=O)N[C@@H](CS)C(=O)O)[C@@H](C)O [GMA4AC] (H-GRCRGFRRRCFCTTHC-OH; N-terminus and C-terminus assumed)
MIC Fusarium graminearum [1]: 6 µM (≈ 11.8 µg/mL)

NCC[C@H](NC(=O)CNC(=O)[C@@H](N)Cc1ccccc1)C(=O)N[C@@H](CS)C(=O)N[C@@H](CCN)C(=O)NCC(=O)N[C@@H](Cc1ccccc1)C(=O)N[C@@H](CCN)C(=O)N[C@@H](CCN)C(=O)N[C@@H](CCN)C(=O)N[C@@H](CS)C(=O)N[C@@H](Cc1ccccc1)C(=O)N[C@@H](CS)C(=O)N[C@@H](Cc1c[nH]c2ccccc12)C(=O)N[C@@H](CCN)C(=O)N[C@@H](Cc1c[nH]c2ccccc12)C(=O)N[C@@H](CS)C(N)=O [GMA4C_V5A, FG(Dab)C(Dab)GF(Dab)(Dab)(Dab)CFCW(Dab)WC-NH2] (H-FG[Dab]C[Dab]GF[Dab][Dab][Dab]CFCW[Dab]WC-NH2; N-terminus assumed)
antifungal activity relative to the wild-type GMA4C_AC control ([2]; against B. cinerea, F. graminearum, F. oxysporum and P. capsici): equivalent to the wild-type GMA4C_AC control | MIC, 100% [3, 13]: 8 µg/mL (≈ 4.08 µM) | MIC, 100% [3, 14]: 16 µg/mL (≈ 8.17 µM) | MIC, 100% [4, 15]: 32 µg/mL (≈ 16.3 µM) | MIC, 100% [4, 16]: >32 µg/mL | MIC, 100% [4, 17]: >32 µg/mL | MIC, 100% [5, 18]: 16 µg/mL (≈ 8.17 µM) | MIC, 100% ([5]; Candida albicans isolate CA3): 8 µg/mL (≈ 4.08 µM) | MIC, 100% [5, 19]: 16 µg/mL (≈ 8.17 µM) | MIC, 100% [6]: 8 µg/mL (≈ 4.08 µM) | MIC, 100% ([7]; Candida auris isolate DI17-46): 16 µg/mL (≈ 8.17 µM) | MIC, 100% ([7]; Candida auris isolate DI17-47): 16 µg/mL (≈ 8.17 µM) | MIC, 100% ([7]; Candida auris isolate DI17-48): 16 µg/mL (≈ 8.17 µM) | MIC, 100% [8]: 8 µg/mL (≈ 4.08 µM) | MIC, 100% [9, 20]: 2 µg/mL (≈ 1.02 µM) | MIC, 100% [9, 21]: 16 µg/mL (≈ 8.17 µM) | MIC, 100% [9, 22]: 16 µg/mL (≈ 8.17 µM)

NCC[C@H](NC(=O)CNC(=O)[C@@H](N)Cc1ccccc1)C(=O)N[C@@H](CS)C(=O)N[C@@H](CCN)C(=O)NCC(=O)N[C@@H](Cc1ccccc1)C(=O)N[C@@H](CCN)C(=O)N[C@@H](CCN)C(=O)N[C@@H](CCN)C(=O)N[C@@H](CS)C(=O)N[C@@H](Cc1ccccc1)C(=O)N[C@@H](CS)C(=O)N[C@@H](Cc1c[nH]c2ccccc12)C(=O)N[C@@H](CCN)C(=O)N[C@@H](Cc1c[nH]c2ccccc12)C(=O)N[C@@H](CS)C(=O)O [GMA4C_V5, FG(Dab)C(Dab)GF(Dab)(Dab)(Dab)CFCW(Dab)WC] (H-FG[Dab]C[Dab]GF[Dab][Dab][Dab]CFCW[Dab]WC-OH; N-terminus assumed)
SFM + 2 mM CaCl2 MIC [10]: >6 (very μM

CC[C@H](C)[C@H](NC(=O)[C@H](CCCNC(=N)N)NC(=O)[C@@H](NC(=O)[C@H](CS)NC(=O)[C@H](Cc1ccccc1)NC(=O)[C@H](CS)NC(=O)[C@H](CCCNC(=N)N)NC(=O)[C@H](CCCNC(=N)N)NC(=O)[C@H](CCCNC(=N)N)NC(=O)[C@H](Cc1ccccc1)NC(=O)CNC(=O)[C@H](CCCNC(=N)N)NC(=O)[C@H](CS)NC(=O)[C@H](CCCNC(=N)N)NC(=O)CNC(=O)CN)[C@@H](C)O)C(=O)N[C@@H](CS)C(N)=O [GMA4C_V2A] (H-GGRCRGFRRRCFCTRIC-NH2; N-terminus assumed)
reduction in antifungal activity relative to the wild-type GMA4C_AC control ([2]; against B. cinerea and F. graminearum): two-fold reduction | MIC, 100% [3, 13]: 8 µg/mL (≈ 3.91 µM) | MIC, 100% [3, 14]: 16 µg/mL (≈ 7.82 µM) | MIC, 100% [4, 15]: 32 µg/mL (≈ 15.6 µM) | MIC, 100% [4, 16]: >32 µg/mL | MIC, 100% [4, 17]: >32 µg/mL | MIC, 100% [5, 18]: 16 µg/mL (≈ 7.82 µM) | MIC, 100% ([5]; Candida albicans isolate CA3): 16 µg/mL (≈ 7.82 µM) | MIC, 100% [5, 19]: 16 µg/mL (≈ 7.82 µM) | MIC, 100% [6]: 8 µg/mL (≈ 3.91 µM) | MIC, 100% ([7]; Candida auris isolate DI17-46): 16 µg/mL (≈ 7.82 µM) | MIC, 100% ([7]; Candida auris isolate DI17-47): 16 µg/mL (≈ 7.82 µM) | MIC, 100% ([7]; Candida auris isolate DI17-48): 16 µg/mL (≈ 7.82 µM) | MIC, 100% [8]: 8 µg/mL (≈ 3.91 µM) | MIC, 100% [9, 20]: 8 µg/mL (≈ 3.91 µM) | MIC, 100% [9, 21]: 16 µg/mL (≈ 7.82 µM) | MIC, 100% [9, 22]: 16 µg/mL (≈ 7.82 µM)

CC[C@H](C)[C@@H]1NC(=O)[C@H](CCCNC(=N)N)NC(=O)[C@H]([C@@H](C)O)NC(=O)[C@H](Cc2ccccc2)NC(=O)[C@H](Cc2c[nH]c3ccccc23)NC(=O)[C@H](Cc2ccccc2)NC(=O)[C@H](CCCNC(=N)N)NC(=O)[C@H](CCCNC(=N)N)NC(=O)[C@H](CC(C)C)NC(=O)[C@H](Cc2ccccc2)NC(=O)CNC(=O)[C@H](CCCCN)NC(=O)[C@@H](NC(=O)[C@H](CCCNC(=N)N)NC(=O)CNC(=O)CN)CSSC[C@@H](C(N)=O)NC1=O [GMA4C_V9] (H-GGRCKGFLRRFWFTRIC-NH2; disulfide 4-17)
MIC (SFM + 2 mM CaCl2) [11]: 12 µM | MIC (SFM + 100 mM KCl) [11]: 6 to 12 µM | MIC (SFM + 100 mM NaCl) [11]: 3 µM | MIC SFM [11]: 3 µM (≈ 6.3 µg/mL) | effectiveness in reducing gray mold disease symptoms [12]: effective in reducing gray mold disease symptoms

CC[C@H](C)[C@@H]1NC(=O)[C@H](CCCNC(=N)N)NC(=O)[C@H]([C@@H](C)O)NC(=O)[C@H](Cc2c[nH]c3ccccc23)NC(=O)[C@H](Cc2ccc(O)cc2)NC(=O)[C@H](Cc2c[nH]c3ccccc23)NC(=O)[C@H](CCCNC(=N)N)NC(=O)[C@H](CCCNC(=N)N)NC(=O)[C@H](CCCNC(=N)N)NC(=O)[C@H](Cc2ccccc2)NC(=O)CNC(=O)[C@H](CCCCN)NC(=O)[C@@H](NC(=O)[C@H](CCCNC(=N)N)NC(=O)CNC(=O)CN)CSSC[C@@H](C(N)=O)NC1=O [GMA4C_V10] (H-GGRCKGFRRRWYWTRIC-NH2; disulfide 4-17; N-terminus assumed)
MIC (SFM + 2 mM CaCl2) [11]: 3 µM | MIC (SFM + 100 mM KCl) [11]: 3 to 6 µM | MIC (SFM + 100 mM NaCl) [11]: 3 µM | MIC SFM [11]: 3 µM (≈ 6.6 µg/mL) | reducing the symptoms of gray mold, comparison of peptides ([12]; peptide at 1.5 μM and 3 μM): more effective in reducing the symptoms of gray mold than GMA4C_V9 | gray mold symptoms ([12]; peptide at 6 μM): completely abrogates gray mold symptoms | effectiveness in reducing gray mold disease symptoms [12]: effective in reducing gray mold disease symptoms

C[C@@H](O)[C@H](NC(=O)[C@H](CS)NC(=O)[C@H](Cc1ccccc1)NC(=O)[C@H](CS)NC(=O)[C@H](CCCNC(=N)N)NC(=O)[C@H](CCCNC(=N)N)NC(=O)[C@H](CCCNC(=N)N)NC(=O)[C@H](Cc1ccccc1)NC(=O)CNC(=O)[C@H](CCCNC(=N)N)NC(=O)[C@H](CS)NC(=O)[C@H](CCCNC(=N)N)NC(=O)CNC(=O)CN)C(=O)N[C@H](C(=O)N[C@@H](Cc1c[nH]cn1)C(=O)N[C@@H](CS)C(N)=O)[C@@H](C)O [GMA4C_AC] (H-GGRCRGFRRRCFCTTHC-NH2; N-terminus assumed)
F. graminearum MIC [1]: 3 µM | MIC Fusarium graminearum [1]: 3 µM (≈ 6.05 µg/mL) | MIC Values against F. graminearum [1]: 6 µM (≈ 12.1 µg/mL) | SFM + 2 mM CaCl2 MIC [10]: >6 (a few μM
